The record followed here is the supplement of paper PMC10307832.

Common to all, as to test: relative viability (nuclei count vs DMSO), 5 days (fraction); higher = more cells survive
Compound in assay [1]: CCN1CCN(c2ccc(Nc3cc(N(C)C(=O)Nc4c(Cl)c(OC)cc(OC)c4Cl)ncn3)cc2)CC1 [BGJ398] + O=C(CCCCCCC(=O)Nc1ccccc1)NO [Vorinostat] (partner 1 µM)
An outline of the steps:
(§1)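 Lung cancer cell lines, seeded in 1536-well plates, were treated the following day by pin tool with a single drug or with five library-drug doses (not always all listed) in √10 steps on top of a fixed anchor-drug dose. Cells were fixed and nuclei stained in one step after 5 days, and nuclei were counted. Relative viability is the nuclei count for treated wells divided by that for vehicle wells, reported as medians of duplicate plates.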

Compound in assay [2]: CCN1CCN(c2ccc(Nc3cc(N(C)C(=O)Nc4c(Cl)c(OC)cc(OC)c4Cl)ncn3)cc2)CC1 [BGJ398] + CC(=O)Nc1cccc(-n2c(=O)n(C3CC3)c(=O)c3c(Nc4ccc(I)cc4F)n(C)c(=O)c(C)c32)c1 [Trametinib] (partner 0.02 µM)
An outline of the steps:
as §1

Compound in assay [3]: CCN1CCN(c2ccc(Nc3cc(N(C)C(=O)Nc4c(Cl)c(OC)cc(OC)c4Cl)ncn3)cc2)CC1 [BGJ398] + CS(=O)(=O)N1CCN(Cc2cc3nc(-c4cccc5[nH]ncc45)nc(N4CCOCC4)c3s2)CC1 [Pictilisib] (partner 1 µM)
The method, boiled down:
as §1

Compound in assay [4]: C1=CC2=NC=CN=C2C=C1/C=C/3\C(=O)NC(=O)S3 + N=C(N)NC(=N)NCCc1ccccc1 [Phenformin] (partner 250 µM)
The method, boiled down:
as §1

For NCI-H1395, the relative viability in assay [1] (first compound 0.01 µM) came out at 0.754; in assay [1] (first compound 0.03162 µM), 0.683; in assay [1] (first compound 0.1 µM), 0.534; in assay [1] (first compound 0.3162 µM), 0.469; in assay [1] (first compound 1 µM), 0.495; in assay [2] (first compound 0.01 µM), 0.986. Also, the relative viability came out at 0.963 in assay [2] (first compound 0.03162 µM); 0.666 in assay [2] (first compound 0.1 µM); 0.555 in assay [2] (first compound 0.3162 µM); 0.587 in assay [2] (first compound 1 µM); 0.664 in assay [3] (first compound 0.01 µM); 0.674 in assay [3] (first compound 0.03162 µM). Besides, the relative viability in assay [3] (first compound 0.1 µM) stood at 0.568; in assay [3] (first compound 0.3162 µM), 0.357; in assay [3] (first compound 1 µM), 0.364; in assay [4] (first compound 0.02 µM), 0.449; in assay [4] (first compound 0.06325 µM) it was 0.449; in assay [4] (first compound 0.2 µM), 0.47. Also, the relative viability was found to be 0.416 in assay [4] (first compound 0.6325 µM) and 0.483 in assay [4] (first compound 2 µM).

As to NCI-H1437, the relative viability in assay [1] (first compound 0.01 µM) stood at 0.954; in assay [1] (first compound 0.03162 µM), 0.887; in assay [1] (first compound 0.1 µM), 0.794; in assay [1] (first compound 0.3162 µM), 0.784; in assay [1] (first compound 1 µM) it was 0.821; in assay [2] (first compound 0.01 µM) it was 0.59. Further, the relative viability stood at 0.508 in assay [2] (first compound 0.03162 µM); 0.559 in assay [2] (first compound 0.1 µM); 0.519 in assay [2] (first compound 0.3162 µM); 0.393 in assay [2] (first compound 1 µM); 0.375 in assay [3] (first compound 0.01 µM); 0.514 in assay [3] (first compound 0.03162 µM). Moreover, the relative viability in assay [3] (first compound 0.1 µM) came to 0.439; in assay [3] (first compound 0.3162 µM), 0.494; in assay [3] (first compound 1 µM), 0.561; in assay [4] (first compound 0.02 µM) it was 0.258; in assay [4] (first compound 0.06325 µM) it was 0.286; in assay [4] (first compound 0.2 µM), 0.369. Further, the results for the relative viability in assay [4] (first compound 0.6325 µM) and in assay [4] (first compound 2 µM) were 0.274 and 0.233, respectively.

On to NCI-H1650, for which the relative viability in assay [1] (first compound 0.01 µM) worked out at 0.476; in assay [1] (first compound 0.03162 µM), 0.493; in assay [1] (first compound 0.1 µM), 0.537; in assay [1] (first compound 0.3162 µM), 0.422; in assay [1] (first compound 1 µM), 0.448; in assay [2] (first compound 0.01 µM) it was 0.503. The relative viability is 0.568 in assay [2] (first compound 0.03162 µM); 0.471 in assay [2] (first compound 0.1 µM); 0.304 in assay [2] (first compound 0.3162 µM); 0.25 in assay [2] (first compound 1 µM); 0.497 in assay [3] (first compound 0.01 µM); 0.394 in assay [3] (first compound 0.03162 µM). Moreover, the relative viability in assay [3] (first compound 0.1 µM) was determined as 0.416; in assay [3] (first compound 0.3162 µM), 0.153; in assay [3] (first compound 1 µM) it was 0.316; in assay [4] (first compound 0.02 µM) it was 0.442; in assay [4] (first compound 0.06325 µM), 0.392; in assay [4] (first compound 0.2 µM) it was 0.503. The results for the relative viability in assay [4] (first compound 0.6325 µM) and in assay [4] (first compound 2 µM) were 0.432 and 0.385, respectively.

With NCI-H1651, the relative viability in assay [1] (first compound 0.01 µM) amounted to 0.473; in assay [1] (first compound 0.03162 µM), 0.544; in assay [1] (first compound 0.1 µM), 0.554; in assay [1] (first compound 0.3162 µM) it was 0.579; in assay [1] (first compound 1 µM), 0.405; in assay [2] (first compound 0.01 µM), 0.804. Further, the relative viability worked out at 0.876 in assay [2] (first compound 0.03162 µM); 0.922 in assay [2] (first compound 0.1 µM); 0.806 in assay [2] (first compound 0.3162 µM); 0.841 in assay [2] (first compound 1 µM); 0.46 in assay [3] (first compound 0.01 µM); 0.625 in assay [3] (first compound 0.03162 µM). The relative viability in assay [3] (first compound 0.1 µM) was determined as 0.574; in assay [3] (first compound 0.3162 µM), 0.507; in assay [3] (first compound 1 µM), 0.546; in assay [4] (first compound 0.02 µM), 0.314; in assay [4] (first compound 0.06325 µM), 0.321; in assay [4] (first compound 0.2 µM) it was 0.325. In addition, the relative viability in assay [4] (first compound 0.6325 µM) turned out to be 0.298; in assay [4] (first compound 2 µM), 0.285.
